How the values were obtained:
[1] = Skin spread factor (product spread on forearm circle, 15 minutes, FD&C Blue No. 1 staining); assay type: in vivo; details: resulting area divided by initial area after fifteen minute spread; FIG. 1A
Description: The skin spread factor is determined by applying, for example, 5 microliters of a product to a 3.14 cm diameter circle on the volar surface of the forearm. The product is spread evenly within the circle and allowed to spread for a fifteen minute period. The test site and surrounding area of the forearm is then sprayed with a 1 percent solution of FD&C Blue No. 1. The area not stained by the blue dye indicates the area onto which the product spread. The skin spread factor is obtained by dividing the resulting area by the initial area. In accordance with the present invention, formulations have a skin spread factor of less than about 8, preferably less than about 5.

[2] = Pigment wetting: viscosity of ester/pigment slurry; assay type: physicochemical; details: for viscosity (pigment wetting): FIG. 1B, dye slurry, 65% ester, 35% pigment, after standing five minutes
Description: Pigment wetting properties are determined by preparing a dye slurry and measuring viscosity. For example, a slurry can be prepared using an alkoxylated fatty alcohol dicarboxylic acid ester of the present invention mixed with 35 percent mica or any dye. The viscosity of the slurry is determined after allowing the slurry to stand for five minutes. The lower the viscosity, the better the pigment wetting properties of the ester. Desirably, in accordance with the present invention, viscosity of the resulting dye slurry will be below about 20,000 cps, preferably between about 500 and 15,000 cps and most preferably between about 500 and 5,000 cps based on a 65% ester, 35% pigment mixture (measured in weight percent). Viscosity will vary if a different testing mixture is used.

skin spread factor [1]	viscosity (pigment wetting) [2]	viscosity ([2]; test mixture not stated at this place)	Compound
relatively low	> 15,000 cps		CCCCCCCC/C=C\CCCCCCCCCCCC(=O)OCCCCCCCCCCCCCCCCCCCCCCCC [LGE, Lignoceryl Erucate]
very high	under 1000 cps		CCCCCCCCCCCCCOC(=O)C(C)(C)C [TDNP, Tridecyl Neopentanoate]
2.9		18,000 cps	Bis (PPG2, PEG10 Myristyl) adipate
about 3.8	about 1200 cps		Di-PPG-3 Myristyl Ether Adipate [DP3A]
very low	~20,000 cps		Pentaerythrityl Tetraisostearate [PTIS]
